Laboratory results reported in patent US10487068B2, “Pyridazine derivatives as RORc modulators” (Genentech, Inc., priority 2015, dated 2019).

What follows are compounds tested against T1, RORc ligand binding domain (Homo sapiens, UniProt P51449) (assay: In Vitro RORc Ligand Binding Assay). Details: RORc IC50, radioligand 25-[3H]hydroxycholesterol 6 nM; 0.6 ug/mL RORc receptor; 3 h at 25° C.
T1 sequence (P51449 269-508 limits assumed): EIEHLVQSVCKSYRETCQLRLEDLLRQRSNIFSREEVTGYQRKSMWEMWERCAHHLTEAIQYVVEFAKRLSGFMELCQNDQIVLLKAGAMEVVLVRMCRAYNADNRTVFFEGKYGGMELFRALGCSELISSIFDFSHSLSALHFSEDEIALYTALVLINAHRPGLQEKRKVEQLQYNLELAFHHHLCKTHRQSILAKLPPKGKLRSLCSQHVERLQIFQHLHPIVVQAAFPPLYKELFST

| IC50 | Compound |
| --- | --- |
| 276 nM | C[C@H](CO)NC(=O)c1ccnc([C@@]23CC[C@@H](c4cc(-c5c(F)cccc5F)nnc42)C3(C)C)c1 [Example 67] |
| 553 nM | C[C@@H](CO)NC(=O)c1ccnc([C@@]23CC[C@@H](c4cc(-c5c(F)cccc5F)nnc42)C3(C)C)c1 [Example 68] |
| 26.4 nM | CC1(C)[C@H]2CC[C@]1(c1cc(C(N)=O)ccn1)c1nnc(-c3c(F)cccc3F)cc12 [Example 69] |
| 50 nM | CNC(=O)c1ccnc([C@@]23CC[C@@H](c4cc(-c5c(F)cccc5F)nnc42)C3(C)C)c1 [Example 70] |
| 1510 nM | CC1(C)[C@H]2CC[C@]1(c1cc(N)ccn1)c1nnc(-c3c(F)cccc3F)cc12 [Example 71] |
| 2.6 nM | CC1(C)[C@H]2CC[C@]1(c1cccc(N)n1)c1nnc(-c3c(F)cccc3F)cc12 [Example 72, 6-((5R,8S)-3-(2,6-difluorophenyl)-9,9-dimethyl-5,6,7,8-tetrahydro-5,8-methanocinnolin-8-yl)pyridin-2-amine] |
| 32.4 nM | CC1(C)[C@@H]2CC[C@@]1(c1cncc(C(=O)NCCO)n1)c1nnc(-c3c(F)cccc3F)cc12 [Example 73, 6-((5S,8R)-3-(2,6-difluorophenyl)-9,9-dimethyl-5,6,7,8-tetrahydro-5,8-methanocinnolin-8-yl)-N-(2-hydroxyethyl)pyrazine-2-carboxamide] |
| 118 nM | CC(=O)Nc1ccnc([C@@]23CC[C@@H](c4cc(-c5c(F)cccc5F)nnc42)C3(C)C)c1 [Example 74] |
| 167 nM | CC1(C)[C@H]2CC[C@]1(c1cc(-c3nnc(CO)o3)ccn1)c1nnc(-c3c(F)cccc3F)cc12 [Example 75] |
| 1470 nM | CN(C)C(=O)c1ccnc([C@@]23CC[C@@H](c4cc(-c5c(F)cccc5F)nnc42)C3(C)C)c1 [Example 76] |
| 139 nM | CC(C)(O)CNC(=O)c1ccnc([C@@]23CC[C@@H](c4cc(-c5c(F)cccc5F)nnc42)C3(C)C)c1 [Example 77] |
| 1190 nM | CC1(C)[C@H]2CC[C@]1(c1cc(NS(C)(=O)=O)ccn1)c1nnc(-c3c(F)cccc3F)cc12 [Example 78] |
| 47.3 nM | CC1(C)[C@H]2CC[C@]1(c1cc(CO)ccn1)c1nnc(-c3c(F)cccc3F)cc12 [Example 79] |
| 11.2 nM | CC1(C)[C@H]2CC[C@]1(c1cccc(NS(C)(=O)=O)n1)c1nnc(-c3c(F)cccc3F)cc12 [Example 80, N-(6-((5R,8S)-3-(2,6-difluorophenyl)-9,9-dimethyl-5,6,7,8-tetrahydro-5,8-methanocinnolin-8-yl)pyridin-2-yl)methanesulfonamide] |
| 52.8 nM | CC1(C)[C@H]2CC[C@]1(c1ccnc(C(=O)NCCO)n1)c1nnc(-c3c(F)cccc3F)cc12 [Example 81] |
| 129 nM | CC1(C)[C@@H]2CC[C@@]1(c1cncc(C(=O)NC3COC3)n1)c1nnc(-c3c(F)cccc3F)cc12 [Example 82, 6-((5S,8R)-3-(2,6-difluorophenyl)-9,9-dimethyl-5,6,7,8-tetrahydro-5,8-methanocinnolin-8-yl)-N-(oxetan-3-yl)pyrazine-2-carboxamide] |
| 13.3 nM | CC1(C)[C@H]2CC[C@]1(c1cccc(C(=O)NCCS(C)(=O)=O)n1)c1nnc(-c3c(F)cccc3F)cc12 [Example 83, 6-((5R,8S)-3-(2,6-difluorophenyl)-9,9-dimethyl-5,6,7,8-tetrahydro-5,8-methanocinnolin-8-yl)-N-(2-(methylsulfonyl)ethyl)picolinamide] |
| 26.3 nM | CC1(C)[C@H]2CC[C@]1(c1cncc(-c3nnc(CO)o3)n1)c1nnc(-c3c(F)cccc3F)cc12 [Example 84, (5-(6-((5R,8S)-3-(2,6-difluorophenyl)-9,9-dimethyl-5,6,7,8-tetrahydro-5,8-methanocinnolin-8-yl)pyrazin-2-yl)-1,3,4-oxadiazol-2-yl)methanol] |

| IC50 | Compound |
| --- | --- |
| 30.6 nM | CC1(C)[C@H]2CC[C@]1(c1cncc(C(=O)NCCCO)n1)c1nnc(-c3c(F)cccc3F)cc12 [Example 85, 6-((5R,8S)-3-(2,6-difluorophenyl)-9,9-dimethyl-5,6,7,8-tetrahydro-5,8-methanocinnolin-8-yl)-N-(3-hydroxypropyl)pyrazine-2-carboxamide] |
| 45 nM | CC(C)(O)CNC(=O)c1cncc([C@@]23CC[C@@H](c4cc(-c5c(F)cccc5F)nnc42)C3(C)C)n1 [Example 86, 6-((5R,8S)-3-(2,6-difluorophenyl)-9,9-dimethyl-5,6,7,8-tetrahydro-5,8-methanocinnolin-8-yl)-N-(2-hydroxy-2-methylpropyl)pyrazine-2-carboxamide] |
| 15.8 nM | CC1(C)[C@H]2CC[C@]1(c1cncc(CO)n1)c1nnc(-c3c(F)cccc3F)cc12 [Example 87, (6-((5R,8S)-3-(2,6-difluorophenyl)-9,9-dimethyl-5,6,7,8-tetrahydro-5,8-methanocinnolin-8-yl)pyrazin-2-yl)methanol] |
| 5.4 nM | Cc1cnc(-c2cncc([C@@]34CC[C@@H](c5cc(-c6c(F)cccc6F)nnc53)C4(C)C)n2)o1 [Example 88, 2-(6-((5R,8S)-3-(2,6-difluorophenyl)-9,9-dimethyl-5,6,7,8-tetrahydro-5,8-methanocinnolin-8-yl)pyrazin-2-yl)-5-methyloxazole] |
| 12.8 nM | C[C@H](O)CNC(=O)c1cncc([C@]23CC[C@H](c4cc(-c5c(F)cccc5F)nnc42)C3(C)C)n1 [Example 89, 6-((5S,8R)-3-(2,6-difluorophenyl)-9,9-dimethyl-5,6,7,8-tetrahydro-5,8-methanocinnolin-8-yl)-N-((S)-2-hydroxypropyl)pyrazine-2-carboxamide] |
| 23 nM | CC1(C)[C@H]2CC[C@]1(c1cncc(C(=O)NCCC#N)n1)c1nnc(-c3c(F)cccc3F)cc12 [Example 90, N-(2-cyanoethyl)-6-((5R,8S)-3-(2,6-difluorophenyl)-9,9-dimethyl-5,6,7,8-tetrahydro-5,8-methanocinnolin-8-yl)pyrazine-2-carboxamide] |
| 40.8 nM | CN(CCO)C(=O)c1cncc([C@@]23CC[C@@H](c4cc(-c5c(F)cccc5F)nnc42)C3(C)C)n1 [Example 91, 6-((5R,8S)-3-(2,6-difluorophenyl)-9,9-dimethyl-5,6,7,8-tetrahydro-5,8-methanocinnolin-8-yl)-N-(2-hydroxyethyl)-N-methylpyrazine-2-carboxamide] |
| 20.6 nM | CC1(C)[C@H]2CC[C@]1(c1cncc(C(=O)NCC#N)n1)c1nnc(-c3c(F)cccc3F)cc12 [Example 92, N-(cyanomethyl)-6-((5R,8S)-3-(2,6-difluorophenyl)-9,9-dimethyl-5,6,7,8-tetrahydro-5,8-methanocinnolin-8-yl)pyrazine-2-carboxamide] |
| 31.8 nM | CC1(C)[C@H]2CC[C@]1(c1cncc(C(=O)N[C@H]3C[C@@H](O)C3)n1)c1nnc(-c3c(F)cccc3F)cc12 [Example 93, 6-((5R,8S)-3-(2,6-difluorophenyl)-9,9-dimethyl-5,6,7,8-tetrahydro-5,8-methanocinnolin-8-yl)-N-((1s,3R)-3-hydroxycyclobutyl)pyrazine-2-carboxamide] |
| 21.5 nM | CC1(C)[C@H]2CC[C@]1(c1cncc(C(=O)N[C@H]3C[C@H](O)C3)n1)c1nnc(-c3c(F)cccc3F)cc12 [Example 94, 6-((5R,8S)-3-(2,6-difluorophenyl)-9,9-dimethyl-5,6,7,8-tetrahydro-5,8-methanocinnolin-8-yl)-N-((1r,3S)-3-hydroxycyclobutyl)pyrazine-2-carboxamide] |
| 117 nM | CC1(C)[C@H]2CC[C@]1(c1nccc(C(=O)NCCO)n1)c1nnc(-c3c(F)cccc3F)cc12 [Example 95, 2-((5R,8R)-3-(2,6-difluorophenyl)-9,9-dimethyl-5,6,7,8-tetrahydro-5,8-methanocinnolin-8-yl)-N-(2-hydroxyethyl)pyrimidine-4-carboxamide] |
| 34.3 nM | CC1(C)[C@H]2CC[C@]1(c1cccc(C(=O)Nc3c[nH]c(=O)cn3)n1)c1nnc(-c3c(F)cccc3F)cc12 [Example 96, 6-((5R,8S)-3-(2,6-difluorophenyl)-9,9-dimethyl-5,6,7,8-tetrahydro-5,8-methanocinnolin-8-yl)-N-(5-oxo-4,5-dihydropyrazin-2-yl)picolinamide] |
| 98.3 nM | CC1(C)[C@H]2CC[C@]1(c1nccc(NCCO)n1)c1nnc(-c3c(F)cccc3F)cc12 [Example 97, 2-((2-((5R,8R)-3-(2,6-difluorophenyl)-9,9-dimethyl-5,6,7,8-tetrahydro-5,8-methanocinnolin-8-yl)pyrimidin-4-yl)amino)ethanol] |
| 15.4 nM | CC1(C)[C@H]2CC[C@]1(c1ccnc(NCCO)n1)c1nnc(-c3c(F)cccc3F)cc12 [Example 98] |
| 40.9 nM | CC1(C)[C@@H]2CC[C@@]1(c1cccc(C(=O)NCCO)n1)c1nnc(-c3c(F)cccc3F)cc12 [Example 99, 6-((5S,8R)-3-(2,6-difluorophenyl)-9,9-dimethyl-5,6,7,8-tetrahydro-5,8-methanocinnolin-8-yl)-N-(2-hydroxyethyl)picolinamide] |
| 41.3 nM | C[C@H](O)CNC(=O)c1cccc([C@]23CC[C@H](c4cc(-c5c(F)cccc5F)nnc42)C3(C)C)n1 [Example 100, 6-((5S,8R)-3-(2,6-difluorophenyl)-9,9-dimethyl-5,6,7,8-tetrahydro-5,8-methanocinnolin-8-yl)-N-((S)-2-hydroxypropyl)picolinamide] |
| 21.9 nM | CC(=O)Nc1cccc([C@@]23CC[C@@H](c4cc(-c5c(F)cccc5F)nnc42)C3(C)C)n1 [Example 101, N-(6-((5R,8S)-3-(2,6-difluorophenyl)-9,9-dimethyl-5,6,7,8-tetrahydro-5,8-methanocinnolin-8-yl)pyridin-2-yl)acetamide] |
| 21.6 nM | Cc1nnc(-c2cccc([C@@]34CC[C@@H](c5cc(-c6c(F)cccc6F)nnc53)C4(C)C)n2)o1 [Example 102, 2-(6-((5R,8S)-3-(2,6-difluorophenyl)-9,9-dimethyl-5,6,7,8-tetrahydro-5,8-methanocinnolin-8-yl)pyridin-2-yl)-5-methyl-1,3,4-oxadiazole] |
